Assay results as given in patent publication US20240116985A1, “STAPLED PEPTIDES AND METHODS THEREOF” (priority 2020, published 2024).

Key:
[1] = target: T1, full-length beta-Catenin (Uniprot ID P35222) (Homo sapiens, UniProt P35222); assay: Fluorescence polarization IC50 (beta-catenin / 5FAM-TCF4 10-53 competition); format: binding; conditions: fluorescence polarization; read-out: beta-Catenin FP IC50
T1 construct: 10 nM full-length beta-Catenin (Uniprot ID P35222)
T1 sequence (P35222 1-781): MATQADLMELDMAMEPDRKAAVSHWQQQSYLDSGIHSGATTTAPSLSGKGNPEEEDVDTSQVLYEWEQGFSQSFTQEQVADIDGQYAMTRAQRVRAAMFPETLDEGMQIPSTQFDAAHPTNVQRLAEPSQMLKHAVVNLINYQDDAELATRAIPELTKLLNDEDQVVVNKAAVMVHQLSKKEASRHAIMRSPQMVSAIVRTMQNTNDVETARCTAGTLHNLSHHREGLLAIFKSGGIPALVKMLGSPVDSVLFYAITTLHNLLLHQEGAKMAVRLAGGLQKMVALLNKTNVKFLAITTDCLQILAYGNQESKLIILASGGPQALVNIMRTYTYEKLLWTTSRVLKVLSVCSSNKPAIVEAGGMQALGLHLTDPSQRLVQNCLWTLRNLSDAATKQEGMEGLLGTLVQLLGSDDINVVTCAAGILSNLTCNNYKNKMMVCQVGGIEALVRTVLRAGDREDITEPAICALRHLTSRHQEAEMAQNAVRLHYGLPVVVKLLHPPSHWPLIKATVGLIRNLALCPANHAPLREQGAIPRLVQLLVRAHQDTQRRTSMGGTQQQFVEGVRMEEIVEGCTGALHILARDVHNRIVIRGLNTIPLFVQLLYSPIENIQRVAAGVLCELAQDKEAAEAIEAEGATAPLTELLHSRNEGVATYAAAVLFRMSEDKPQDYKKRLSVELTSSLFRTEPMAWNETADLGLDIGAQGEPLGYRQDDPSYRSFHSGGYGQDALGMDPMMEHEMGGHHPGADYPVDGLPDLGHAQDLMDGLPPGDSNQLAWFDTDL

[2] = target: T2, beta-catenin/TCF4 engagement (Homo sapiens, UniProt P35222); assay: Nano-BRET target engagement assay (B-cat-Halo & TCF4-Luc in HEK293 cells); format: cell-based; conditions: absolute IC50; read-out: NanoBRET Abs IC50
T2 construct: expressed in transfected cells; host or cells: HEK293
T2 sequence (P35222 1-781): T1 sequence (P35222 1-781)

Row | IC50 [1] [nM] | IC50 [2] [nM] | Compound
1 | 11 | > 20000 | CC(=O)N1CCC[C@]12CC=CCCCC1(CCCC=CCCCOC(=O)N3CC[C@@](C(=O)N[C@@H](Cc4ccsc4)C(=O)N[C@@H](Cc4csc5ccccc45)C(=O)N[C@@H](CCC(N)=O)C(N)=O)(C3)NC(=O)[C@H](CC(N)=O)NC(=O)[C@H](Cc3ccccc3)NC(=O)[C@H](C)NC(=O)[C@H](C)NC(=O)[C@H](CN(C)CC(=O)O)NC(=O)[C@H](CC(=O)O)NC1=O)NC(=O)[C@H](CC(C)(C)C)NC(=O)[C@H](CC(=O)O)NC2=O (stereo partly drawn) [I-1637, Ac-PL3-Asp-Npg-B5-Asp-[Me]GA-Ala-Ala-Phe-Asn-PyrS2-3Thi-BztA-Gln-NH2]
2 | 9 | 14500 | CC(=O)N1CCC[C@]12CC=CCCCC1(CCCC=CCCCOC(=O)N3CC[C@@](C(=O)N[C@@H](Cc4ccsc4)C(=O)N[C@@H](Cc4csc5ccccc45)C(=O)N[C@@H](CCC(N)=O)C(N)=O)(C3)NC(=O)[C@H](CC(N)=O)NC(=O)[C@H](Cc3ccccc3)NC(=O)[C@H](C)NC(=O)[C@H](C)NC(=O)[C@H](CN(CC(=O)O)Cc3c(F)c(F)c(F)c(F)c3F)NC(=O)[C@H](CC(=O)O)NC1=O)NC(=O)[C@H](CC(C)(C)C)NC(=O)[C@H](CC(=O)O)NC2=O (stereo partly drawn) [I-1638, Ac-PL3-Asp-Npg-B5-Asp-[Pfbn]GA-Ala-Ala-Phe-Asn-PyrS2-3Thi-BztA-Gln-NH2]
3 | 13 | 32900 | CC(=O)N1CCC[C@]12CC=CCCCC1(CCCC=CCCCOC(=O)N3CC[C@@](C(=O)N[C@@H](Cc4ccsc4)C(=O)N[C@@H](Cc4csc5ccccc45)C(=O)N[C@@H](CCC(N)=O)C(N)=O)(C3)NC(=O)[C@H](CC(N)=O)NC(=O)[C@H](Cc3ccccc3)NC(=O)[C@H](C)NC(=O)[C@H](C)NC(=O)[C@H](CN(CC(=O)O)Cc3c(F)c(F)c(F)c(F)c3F)NC(=O)[C@H](CC(=O)O)NC1=O)NC(=O)[C@H](CC(C)(C)C)NC(=O)[C@H](CC(=O)O)NC2=O (stereo partly drawn) [I-1639, Ac-PL3-Asp-Npg-B5-Asp-[Pfbn]GA-Ala-Ala-Phe-Asn-PyrS2-3Thi-BztA-Gln-NH2]
4 | 191 | > 20000 | CC(=O)N1CCC[C@]12CC=CCCCC1(CCCC=CCCCOC(=O)N3CC[C@@](C(=O)N[C@@H](Cc4ccccc4)C(=O)N[C@@H](Cc4csc5ccccc45)C(=O)N[C@@H](CCC(N)=O)C(N)=O)(C3)NC(=O)[C@H](CC(C)C)NC(=O)[C@H](Cc3ccccc3)NC(=O)[C@H](C)NC(=O)[C@H](CCCCNC(C)C)NC(=O)[C@H](CCC(N)=O)NC(=O)[C@H](CC(=O)O)NC1=O)NC(=O)[C@H](CC1CCCCC1)NC(=O)[C@H](CC(N)=O)NC2=O (stereo partly drawn) [I-1648, Ac-PL3-Asn-Cha-B5-Asp-Gln-iPrLys-Ala-Phe-Leu-PyrS2-Phe-BztA-Gln-NH2]
5 | 48 | 12700 | CC(=O)N1CCC[C@]12CC=CCCCC1(CCCC=CCCCOC(=O)N3CC[C@@](C(=O)N[C@@H](Cc4ccccc4C(F)(F)F)C(=O)N[C@@H](Cc4csc5ccccc45)C(=O)N[C@@H](CCC(N)=O)C(N)=O)(C3)NC(=O)[C@H](Cc3ccccc3)NC(=O)[C@H](Cc3ccccc3)NC(=O)[C@H](C)NC(=O)[C@H](C)NC(=O)[C@H](Cc3ccccc3C(=O)O)NC(=O)[C@H](CC(=O)O)NC1=O)NC(=O)[C@H](CC(C)(C)C)NC(=O)[C@H](CC(=O)O)NC2=O (stereo partly drawn) [I-1655, Ac-PL3-Asp-Npg-B5-Asp-2COOHF-Ala-Ala-Phe-Phe-PyrS2-2F3MeF-BztA-Gln-NH2]
6 | 20 | 10900 | CC(=O)N1CCC[C@]12CC=CCCCC1(CCCC=CCCCOC(=O)N3CC[C@@](C(=O)N[C@@H](Cc4ccccc4C(F)(F)F)C(=O)N[C@@H](Cc4csc5ccccc45)C(=O)N[C@@H](CCC(N)=O)C(N)=O)(C3)NC(=O)[C@H](CC(C)C)NC(=O)[C@H](Cc3ccccc3)NC(=O)[C@H](C)NC(=O)[C@H](C)NC(=O)[C@H](Cc3ccccc3C(=O)O)NC(=O)[C@H](CC(=O)O)NC1=O)NC(=O)[C@H](CC(C)(C)C)NC(=O)[C@H](CC(=O)O)NC2=O (stereo partly drawn) [I-1656, Ac-PL3-Asp-Npg-B5-Asp-2COOHF-Ala-Ala-Phe-Leu-PyrS2-2F3MeF-BztA-Gln-NH2]
7 | 36 | 11000 | CC(=O)N1CCC[C@]12CC=CCCCC1(CCCC=CCCCOC(=O)N3CC[C@@](C(=O)N[C@@H](Cc4ccccc4Cl)C(=O)N[C@@H](Cc4csc5ccccc45)C(=O)N[C@@H](CCC(N)=O)C(N)=O)(C3)NC(=O)[C@H](Cc3ccccc3)NC(=O)[C@H](Cc3ccccc3)NC(=O)[C@H](C)NC(=O)[C@H](C)NC(=O)[C@H](Cc3ccccc3C(=O)O)NC(=O)[C@H](CC(=O)O)NC1=O)NC(=O)[C@H](CC(C)(C)C)NC(=O)[C@H](CC(=O)O)NC2=O (stereo partly drawn) [I-1657, Ac-PL3-Asp-Npg-B5-Asp-2COOHF-Ala-Ala-Phe-Phe-PyrS2-2C1F-BztA-Gln-NH2]
8 | 19 | 9800 | CC(=O)N1CCC[C@]12CC=CCCCC1(CCCC=CCCCOC(=O)N3CC[C@@](C(=O)N[C@@H](Cc4ccccc4Cl)C(=O)N[C@@H](Cc4csc5ccccc45)C(=O)N[C@@H](CCC(N)=O)C(N)=O)(C3)NC(=O)[C@H](CC(C)C)NC(=O)[C@H](Cc3ccccc3)NC(=O)[C@H](C)NC(=O)[C@H](C)NC(=O)[C@H](Cc3ccccc3C(=O)O)NC(=O)[C@H](CC(=O)O)NC1=O)NC(=O)[C@H](CC(C)(C)C)NC(=O)[C@H](CC(=O)O)NC2=O (stereo partly drawn) [I-1658, Ac-PL3-Asp-Npg-B5-Asp-2COOHF-Ala-Ala-Phe-Leu-PyrS2-2C1F-BztA-Gln-NH2]
9 | 108 | 11400 | CC(=O)N1CCC[C@]12CC=CCCCC1(CCCC=CCCCOC(=O)N3CC[C@@](C(=O)N[C@@H](Cc4ccccc4C(F)(F)F)C(=O)N[C@@H](Cc4csc5ccccc45)C(=O)N[C@@H](CO)C(N)=O)(C3)NC(=O)[C@H](Cc3ccccc3)NC(=O)[C@H](Cc3ccccc3)NC(=O)[C@H](C)NC(=O)[C@H](C)NC(=O)[C@H](Cc3ccccc3C(=O)O)NC(=O)[C@H](CC(=O)O)NC1=O)NC(=O)[C@H](CC(C)(C)C)NC(=O)[C@H](CC(=O)O)NC2=O (stereo partly drawn) [I-1659, Ac-PL3-Asp-Npg-B5-Asp-2COOHF-Ala-Ala-Phe-Phe-PyrS2-2F3MeF-BztA-Ser-NH2]
10 | 69 | 12000 | CC(=O)N1CCC[C@]12CC=CCCCC1(CCCC=CCCCOC(=O)N3CC[C@@](C(=O)N[C@@H](Cc4ccccc4Cl)C(=O)N[C@@H](Cc4csc5ccccc45)C(=O)N[C@@H](CO)C(N)=O)(C3)NC(=O)[C@H](Cc3ccccc3)NC(=O)[C@H](Cc3ccccc3)NC(=O)[C@H](C)NC(=O)[C@H](C)NC(=O)[C@H](Cc3ccccc3C(=O)O)NC(=O)[C@H](CC(=O)O)NC1=O)NC(=O)[C@H](CC(C)(C)C)NC(=O)[C@H](CC(=O)O)NC2=O (stereo partly drawn) [I-1662, Ac-PL3-Asp-Npg-B5-Asp-2COOHF-Ala-Ala-Phe-Phe-PyrS2-2C1F-BztA-Ser-NH2]
11 | 67 | 8500 | CC(=O)N1CCC[C@]12CC=CCCCC1(CCCC=CCCCOC(=O)N3CC[C@@](C(=O)N[C@@H](Cc4ccccc4Cl)C(=O)N[C@@H](Cc4csc5ccccc45)C(=O)N[C@@H](CO)C(N)=O)(C3)NC(=O)[C@H](CC(C)C)NC(=O)[C@H](Cc3ccccc3)NC(=O)[C@H](C)NC(=O)[C@H](C)NC(=O)[C@H](Cc3ccccc3C(=O)O)NC(=O)[C@H](CC(=O)O)NC1=O)NC(=O)[C@H](CC(C)(C)C)NC(=O)[C@H](CC(=O)O)NC2=O (stereo partly drawn) [I-1663, Ac-PL3-Asp-Npg-B5-Asp-2COOHF-Ala-Ala-Phe-Leu-PyrS2-2C1F-BztA-Ser-NH2]
12 | 40 | 7100 | CCNC(=O)[C@H](CCC(N)=O)NC(=O)[C@H](Cc1csc2ccccc12)NC(=O)[C@H](Cc1ccccc1Cl)NC(=O)[C@]12CCN(C1)C(=O)OCCCC=CCCCC1(CCCC=CC[C@]3(CCCN3C(C)=O)C(=O)N[C@@H](CC(=O)O)C(=O)N[C@@H](CC(C)(C)C)C(=O)N1)C(=O)N[C@@H](CC(=O)O)C(=O)N[C@@H](Cc1cccc(C(=O)O)c1)C(=O)N[C@@H](C)C(=O)N[C@@H](C)C(=O)N[C@@H](Cc1ccccc1)C(=O)N[C@@H](CC(C)C)C(=O)N2 (stereo partly drawn) [I-1672, Ac-PL3-Asp-Npg-B5-Asp-3COOHF-Ala-Ala-Phe-Leu-PyrS2-2C1F-BztA-Gln-NHEt]
13 | 147 | 18300 | CC(=O)N1CCC[C@]12CC=CCCCC1(CCCC=CCCCOC(=O)N3CC[C@@](C(=O)N[C@@H](Cc4ccccc4Cl)C(=O)N[C@@H](Cc4csc5ccccc45)C(=O)N[C@@H](CCC(N)=O)C(=O)N[C@H](CO)Cc4ccccc4)(C3)NC(=O)[C@H](CC(C)C)NC(=O)[C@H](Cc3ccccc3)NC(=O)[C@H](C)NC(=O)[C@H](C)NC(=O)[C@H](Cc3cccc(C(=O)O)c3)NC(=O)[C@H](CC(=O)O)NC1=O)NC(=O)[C@H](CC(C)(C)C)NC(=O)[C@H](CC(=O)O)NC2=O (stereo partly drawn) [I-1674, Ac-PL3-Asp-Npg-B5-Asp-3COOHF-Ala-Ala-Phe-Leu-PyrS2-2C1F-BztA-Gln-]
